Measurements from publication PMC10584170, “Machine learning-based phenotypic imaging to characterise the targetable biology of Plasmodium falciparum male gametocytes for the development of transmission-blocking antimalarials” (PLOS Pathogens, 2023).

Legend:
[1] = test system: P. falciparum male gametocytes; assay: P. falciparum Dual Gamete Formation Assay (PfDGFA), male readout (exflagellation); format: cell-based, Plasmodium falciparum NF54; details: for % inhibition male (individual replicates) R1: replicate R1; for % inhibition male (individual replicates) R4: replicate R4; for Average inhibition male (%): average of replicates; for % inhibition male (individual replicates) R3: replicate R3; for Activity: hit = >50% inhibition in male or female readout in at least 3 replicates, 0 = no class assigned
Summary of the method: (§1)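 Read-outs are automated image counts of exflagellation centres (brightfield, 10 frames over 1 s) and Pfs25-positive female gametes (Cy3 fluorescence).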

[2] = test system: P. falciparum female gametocytes; assay: P. falciparum Dual Gamete Formation Assay (PfDGFA), female readout (Pfs25-positive female gametes); format: cell-based, Plasmodium falciparum NF54; details: for % inhibition female (individual replicates) R1: replicate R1; for % inhibition female (individual replicates) R3: replicate R3; for % inhibition female (individual replicates) R4: replicate R4; for Average inhibition female (%): average of replicates
Summary of the method: as §1

[3] = PfDGFA at 2µM, 24h preincubation with gametocytes prior to induction of gametogenesis
[4] = PfDGFA at 2µM, 24h preincubation
[5] = 2µM, 24h preincubation with gametocytes
[6] = 2µM, 24h preincubation with gametocytes prior to induction of gametogenesis
[7] = 2µM, 24h preincubation, number of replicates with >50% inhibition in the male readout
[8] = 2µM, 24h preincubation, number of replicates with >50% inhibition in the female readout
[9] = 2µM, 24h preincubation, hits selected on >50% inhibition in the male readout across replicates
[10] = 2µM, 24h preincubation, hits selected on >50% inhibition in the female readout across replicates
[11] = PfDGFA at 2µM, 24h preincubation with gametocytes

SMILES | % inhibition male (individual replicates) R1 [1, 3] [%] | % inhibition male (individual replicates) R4 [1, 3] [%] | Average inhibition male (%) [1, 4] [%] | % inhibition female (individual replicates) R1 [2, 3] [%] | % inhibition female (individual replicates) R3 [2, 3] [%] | % inhibition female (individual replicates) R4 [2, 3] [%] | Average inhibition female (%) [2, 4] [%] | Average inhibition male (%) [1, 6] [%] | % inhibition male (individual replicates) R1 [1, 6] [%] | % inhibition male (individual replicates) R3 [1, 6] [%] | % inhibition male (individual replicates) R4 [1, 6] [%] | Average inhibition female (%) [2, 6] [%] | % inhibition female (individual replicates) R1 [2, 6] [%] | % inhibition female (individual replicates) R3 [2, 6] [%] | % inhibition female (individual replicates) R4 [2, 6] [%] | other results
Cc1ccc2c(Cc3cnc(N)nc3N)cc(C)c(N)c2n1.Cl [TCMDC-137878] | 10.8 | 0.8 | 15.3 | 1.9 | 4.6 | 2.9 | -0.2 | – | – | – | – | – | – | – | – | –
Cl.N=C(N)NN=Cc1c2ccc(Cl)cc2c(Cl)c2ccc(Cl)cc12 [TCMDC-137884] | – | – | – | – | – | – | – | – | – | – | – | – | – | – | – | Average inhibition male (%) [1, 5]: 92.6%; % inhibition male (individual replicates) R1 [1, 5]: 97.0%; % inhibition male (individual replicates) R3 [1, 5]: 80.2%; % inhibition male (individual replicates) R4 [1, 5]: 97.6%; Average inhibition female (%) [2, 5]: 57.1%; % inhibition female (individual replicates) R1 [2, 5]: 33.5%; % inhibition female (individual replicates) R3 [2, 5]: 56.7%; % inhibition female (individual replicates) R4 [2, 5]: 75.9%
O=C(NCc1ccccc1[S+]([O-])c1ccccc1CO)C(F)(F)F (centres unmarked) [TCMDC-137886] | 18.6 | -31.1 | -8.4 | 9.6 | -29.2 | 19.1 | 3.3 | – | – | – | – | – | – | – | – | % inhibition male (individual replicates) R3 [1, 3]: -28.2%
Cl.Nc1ncc(Cc2cc(Cl)c(N)c3ncccc23)c(N)n1 [TCMDC-137889] | 6.1 | -13.1 | -7.9 | 12.6 | -23.8 | 5.5 | -0.8 | – | – | – | – | – | – | – | – | % inhibition male (individual replicates) R3 [1, 3]: -28.8%
Cl.c1ccc2c(NCCCCCCCNc3ccnc4ccccc34)ccnc2c1 [TCMDC-137897] | – | – | – | – | – | – | – | 23.4 | 24.9 | -14.5 | 54.2 | 26.1 | 24.7 | -5.3 | 43.2 | HitlevelM [1, 7]: 1; HitlevelF [2, 8]: 0
Cl.c1ccc2c(c1)cc(CNCCCN1CCN(CCCNCc3cc4ccccc4c4ccccc34)CC1)c1ccccc12 [TCMDC-137914] | – | – | – | – | – | – | – | 5.2 | 10.5 | -10.9 | 23.6 | 20.8 | 24.6 | 15.0 | 14.7 | HitlevelM [1, 7]: 0; HitlevelF [2, 8]: 0
CCc1nc(N)nc(N)c1CCCOc1ccccc1Cl.Cl [TCMDC-137928] | – | – | – | – | – | – | – | -0.378 | 19.6 | 1.0 | -29.1 | 14.6 | 20.2 | 26.6 | 2.3 | HitlevelM [1, 9]: 0; Activity [1, 4]: 0; HitlevelF [2, 10]: 0
CCOc1cc2ccccc2cc1CNCCCCCCNCc1cc2ccccc2cc1OCC.CS(=O)(=O)O [TCMDC-137940] | – | – | – | – | – | – | – | -10.2 | -8.8 | -9.1 | -15.1 | 10.1 | 11.4 | 8.9 | 5.4 | HitlevelM [1, 9]: 0; Activity [1, 4]: 0; HitlevelF [2, 10]: 0
CCOc1c(CNCCCCCCNCc2ccc3ccccc3c2OCC)ccc2ccccc12.CS(=O)(=O)O [TCMDC-137942] | – | – | – | – | – | – | – | – | – | – | – | – | – | – | – | Average inhibition male (%) [1, 11]: 82.7%; % inhibition male (individual replicates) R1 [1, 11]: 76.8%; % inhibition male (individual replicates) R3 [1, 11]: 64.7%; % inhibition male (individual replicates) R4 [1, 11]: 98.9%; HitlevelM ([1]; number of replicates with >50% inhibition in the male readout, 2µM): 4; Average inhibition female (%) [2, 11]: 35.4%; % inhibition female (individual replicates) R1 [2, 11]: 30.1%; % inhibition female (individual replicates) R3 [2, 11]: 19.1%; % inhibition female (individual replicates) R4 [2, 11]: 50.5%; HitlevelF ([2]; number of replicates with >50% inhibition in the female readout, 2µM): 1
